From patent publication US8591880B2, “Gut flora and weight management” (priority 2007, dated 2013)
Like-named read-outs stand apart in the source and are kept apart here.

Columns and labels:
Assay type in all cases: cell-based
Lactobacillus = assay: In vitro antibiotic susceptibility strip test, Lactobacillus; details: colonies from feces of ob/ob mice; for Susceptibility class, Lactobacillus: MRS/cystein agar, strip test; for Count in brackets, Lactobacillus: fraction given, not defined
Bifidobacteria = assay: In vitro antibiotic susceptibility strip test, Bifidobacteria; details: colonies from feces of ob/ob mice; for Susceptibility class, Bifidobacteria: MRS/cystein agar, strip test; for Count in brackets, Bifidobacteria: fraction given, not defined
Enterobacteria = assay: In vitro antibiotic susceptibility strip test, Enterobacteria; details: for Susceptibility class, Enterobacteria / Count in brackets, Enterobacteria: colonies from feces of ob/ob mice; for Susceptibility class, Enterobacteria: Mueller Hinton agar, strip test; for Count in brackets, Enterobacteria: fraction given, not defined; for Growth / susceptibility of fecal enterobacteria, in words: summary of Table 1
Bacteroides = assay: In vitro antibiotic susceptibility strip test, Bacteroides; details: for Count in brackets, Bacteroides: fraction given, not defined
[1] = colonies from feces of ob/ob mice
[2] = colonies from feces of ob/ob mice, Brucella agar, strip test

Row | Compound | Susceptibility class, Lactobacillus (Lactobacillus) | Count in brackets, Lactobacillus (Lactobacillus) | Susceptibility class, Bifidobacteria (Bifidobacteria) | Count in brackets, Bifidobacteria (Bifidobacteria) | Susceptibility class, Enterobacteria (Enterobacteria) | Count in brackets, Enterobacteria (Enterobacteria) | Growth / susceptibility of fecal enterobacteria, in words (Enterobacteria) | Susceptibility class, Bacteroides (Bacteroides) | Count in brackets, Bacteroides (Bacteroides; [1]) | Susceptibility class, Bacteroides (Bacteroides; [2])
1 | CC1(C)S[C@@H]2[C@H](NC(=O)[C@H](N)c3ccc(O)cc3)C(=O)N2[C@H]1C(=O)O [Amoxicillin, amoxicillin] | S | 33/33 | S | 3/3 | R | 0/19 | resistant | S/R (14/16) | S/R (14/16) | 
2 | CC1(C)S[C@@H]2[C@H](NC(=O)[C@H](N)c3ccccc3)C(=O)N2[C@H]1C(=O)O [Ampicillin, ampicillin] | S | 33/33 | S | 3/3 | S/R | 13/19 | only partially sensitive |  | 16/16 | S
3 | CCn1cc(C(=O)O)c(=O)c2cc(F)c(N3CCNCC3)cc21 [Norfloxacin, norfloxacin] | S/R | 25/33 | R | 0/3 | S | 19/19 | capable of suppressing the growth |  | 0/16 | R
